For this experiment, the target named is Human TASK-1 channels (Homo sapiens (Human), UniProt O14649). Briefly: Determination of the activity on the TASK-1 channel in Xenopus oocytes (two-microelectrode voltage clamp). The conditions noted are these: for IC50: human TASK-1 expressed in Xenopus oocytes, room temperature, read-out: IC50 value for TASK-1 inhibition; for inhibition at 5 µM: compound concentration 5 μM. The format is cell-based. The procedure, abridged:
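Current during 500 ms pulses to 40 mV from a −90 mV hold was recorded in oocytes expressing human TASK-1 for two days after cRNA injection. Compounds were added cumulatively to the ND96 bath (pH 7.4, room temperature). IC50 came from dose-response fitting of inhibition relative to pre-compound current.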

SMILES strings stand for the structures.

Human TASK-1 channels, sequence (O14649 whole entry): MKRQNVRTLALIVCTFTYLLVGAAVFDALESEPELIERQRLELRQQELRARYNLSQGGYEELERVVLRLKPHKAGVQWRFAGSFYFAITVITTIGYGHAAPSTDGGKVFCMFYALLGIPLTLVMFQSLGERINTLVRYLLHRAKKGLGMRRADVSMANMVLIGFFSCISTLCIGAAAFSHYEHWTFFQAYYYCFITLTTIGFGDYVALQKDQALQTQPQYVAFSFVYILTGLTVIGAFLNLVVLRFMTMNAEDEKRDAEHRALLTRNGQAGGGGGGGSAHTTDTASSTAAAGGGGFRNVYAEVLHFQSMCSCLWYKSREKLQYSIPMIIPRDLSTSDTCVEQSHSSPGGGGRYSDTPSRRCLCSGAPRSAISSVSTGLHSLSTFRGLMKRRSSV

Consider `CC[C@@H](NC(=O)c1cc(C(=O)N2CCOCC2)n2c1CCCC2)c1ccccc1` [16nc, 3-(Morpholine-4-carbonyl)-5,6,7,8-tetrahydro-indolizine-1-carboxylic acid ((R)-1-phenyl-propyl)-amide], for which the IC50 was determined as 2000 nM.
The same measure, in the same setting: the same measure for `CC[C@@H](NC(=O)c1cc(C(=O)Nc2c(C)noc2C)n2c1CCCC2)c1ccccc1` [16nd, 5,6,7,8-Tetrahydro-indolizine-1,3-dicarboxylic acid 3-[(3,5-dimethyl-isoxazol-4-yl)-amide] 1-[((R)-1-phenyl-propyl)-amide]]: 210 nM.
As to `CC[C@@H](NC(=O)c1cc(C(=O)Nc2cncc(F)c2)n2c1CCCC2)c1ccccc1` [16ne, 5,6,7,8-Tetrahydro-indolizine-1,3-dicarboxylic acid 3-[(5-fluoro-pyridin-3-yl)-amide] 1-[((R)-1-phenyl-propyl)-amide]], the inhibition at 5 µM came out at 83%.
With `CC[C@@H](NC(=O)c1cc(C(=O)NCc2ccccc2)n2c1CCCC2)c1ccccc1` [16nf, 5,6,7,8-Tetrahydro-indolizine-1,3-dicarboxylic acid 3-benzylamide 1-[((R)-1-phenyl-propyl)-amide]], the IC50 turned out to be 110 nM.
Compound `CC[C@@H](NC(=O)c1cc(C(=O)NCC2(c3ccccc3)CCCC2)n2c1CCCC2)c1ccccc1` [16ng, 5,6,7,8-Tetrahydro-indolizine-1,3-dicarboxylic acid 3-[(1-phenyl-cyclopentylmethyl)-amide] 1-[((R)-1-phenyl-propyl)-amide]] gave an inhibition at 5 µM of 55%.
As to `CC[C@@H](NC(=O)c1cc(C(=O)N2CCC[C@@H]2C)c2n1CCOC2)c1ccccc1Cl` [16nh, 8-((S)-2-Methyl-pyrrolidine-1-carbonyl)-3,4-dihydro-1H-pyrrolo[2,1-c][1,4]oxazine-6-carboxylic acid [(R)-1-(2-chloro-phenyl)-propyl]-amide], the IC50 was 90 nM.
On the same count and under the same terms, the same measure for `CC[C@@H](NC(=O)c1cc(C(=O)N2CCC[C@@H]2C)c2n1CCOC2)c1ccccc1C(F)(F)F` [16ni, 8-((S)-2-Methyl-pyrrolidine-1-carbonyl)-3,4-dihydro-1H-pyrrolo[2,1-c][1,4]oxazine-6-carboxylic acid [(R)-1-(2-trifluoromethyl-phenyl)-propyl]-amide]: 290 nM.
The same measure, in the same setting: next, `CC[C@@H](NC(=O)c1cc(C(=O)N2CCC[C@@H]2C)c2n1CCOC2)c1ccc(C#N)nc1` [16nj, 8-((S)-2-Methyl-pyrrolidine-1-carbonyl)-3,4-dihydro-1H-pyrrolo[2,1-c][1,4]oxazine-6-carboxylic acid [(R)-1-(6-cyano-pyridin-3-yl)-propyl]-amide]: 2000 nM.
In the case of `CC[C@@H](NC(=O)c1cc(C(=O)N2CCC[C@@H]2C)c2n1CCOC2)c1ccc(C(F)(F)F)nc1` [16nk, 8-((S)-2-Methyl-pyrrolidine-1-carbonyl)-3,4-dihydro-1H-pyrrolo[2,1-c][1,4]oxazine-6-carboxylic acid [(R)-1-(6-trifluoromethyl-pyridin-3-yl)-propyl]-amide], at 5 µM the inhibition was 62%.
On the same count and under the same terms, next, `CC[C@@H](NC(=O)c1cc(C(=O)N2CCC[C@@H]2C)c2n1CCOC2)c1ccc(C#N)cc1` [16nl, 8-((S)-2-Methyl-pyrrolidine-1-carbonyl)-3,4-dihydro-1H-pyrrolo[2,1-c][1,4]oxazine-6-carboxylic acid [(R)-1-(4-cyano-phenyl)-propyl]-amide]: 70%.
On to `CC(C)[C@@H](NC(=O)c1cc(C(=O)N2CCC[C@@H]2C)c2n1CCOC2)c1ccc(C#N)nc1` [16nm, 8-((S)-2-Methyl-pyrrolidine-1-carbonyl)-3,4-dihydro-1H-pyrrolo[2,1-c][1,4]oxazine-6-carboxylic acid [(R)-1-(6-cyano-pyridin-3-yl)-2-methyl-propyl]-amide], for which at 5 µM the inhibition was 77%.
For `CC[C@@H](NC(=O)c1cc(C(=O)N2CC[C@H](OC)C2)n2c1COCC2)c1ccc(F)cc1Cl` [16nn, 6-((S)-3-Methoxy-pyrrolidine-1-carbonyl)-3,4-dihydro-1H-pyrrolo[2,1-c][1,4]oxazine-8-carboxylic acid [(R)-1-(2-chloro-4-fluoro-phenyl)-propyl]-amide], the IC50 turned out to be 270 nM.

The record behind these values is patent US9284333B2, “Fused pyrroledicarboxamides and their use as pharmaceuticals” (SANOFI, priority 2012, dated 2016).
